{
  "source": "patent US8609723B2",
  "about": "(Beijing Dingguochangsheng Biotech., Co., Ltd., priority 2008, dated 2013)",
  "format_in_all_cases": "in vivo",
  "key": {"[1]": {"test_system": "5-HT, NA, DA and metabolites thereof in hippocampus", "experiment": "Detection of monoamine and metabolites thereof in brains of mice", "details": "18.4 mg/kg", "experimental": "Hippocampus was collected immediately on ice, weighed, put into an Eppendorf tube and kept in refrigeratory at −80° C. To each 100 mg brain tissue, 200 μl ice-cooled Solution A (0.4 mol/L HCLO4) was added. The mixture was homogenized ultrasonically in a ice bath, kept in dark at 4° C. for 60 min, and centrifuged for 20 min (12,000 rpm, 4° C.). […] The mixture was vortexed thoroughly for 10 min, kept at 4° C. in dark for 60 min, and centrifuged again for 20 min (12,000 rpm, 4° C.). The supernatant was collected and measured for the content of monoamine. The contents of 5-HT, NA, DA, 5-HIAA and DOPAC in brain tissue were determined by High Effective Liquid Phase Electrochemistry. […] The contents of monoamine and metabolites thereof in brain tissue were shown as ng/g wet tissue weight."}, "[2]": {"test_system": "chronically stressed rats", "experiment": "Sugar water test of rats (chronic stress model)", "details": "table title says (%)", "description": "(§1) The rats in the normal control group were raised normally under a condition without any stimulation except for weighing body weight, measuring body temperature, and subjected to sugar test. All of other groups were subjected to stimulations of same type and same strength. During the experiment, different types of stimulations were applied in an unpredictable manner, and the same type of stimulation was enhanced each time.\n(§2) The chronic stress course was 20 days in total, once per day, from 9:00 AM to 2:00 PM. The stress protocol was shown as follows: horizontally shaking at a high speed for 45 min; nipping tails (1 cm from the tail root): 1 min; depriving of water for 24 h; forbidding moving for 1.5 h; fasting for 24 h; stimulating with ice water (water temperature: 10° C.) for 5 min; electric shocking (1 mA, time course: is, 1 shock/min) the bottoms of feet for 30 min; changing cages and raising separately for 24 h; forbidding moving for 2 h; nipping tails (1 cm from the root of tail) for 1 min; depriving of water for 24 h; horizontally shaking at a high speed for 1.5 h; fasting for 24 h; nipping tails (1 cm from the tail root): 1 min; electric shocking (1 mA, time course: 1 s, 1 shock/min) the bottoms of feet for 40 min; stimulating with ice water for 5 min; changing cages and raising separately for 24 h; horizontally shaking at a high speed for 60 min; electric shocking (1 mA, time course: 1 s, 1 shock/min) the bottoms of feet for 50 min; depriving of water for 24 h; forbidding moving for 2.5 h; and 24 h social isolation.\nBefore this experiment, animals were trained to adapt to drink sugar water in a to quite room. Two bottles were placed simultaneously into each cage. For the first 24 h, these two bottles were both filled with 1% sugar water; and for the next 24 h, one of them was filled with 1% sugar water and the other was filled with pure water. Then after 23-hour water deprivation, the animals were tested for basic sugar water/pure water consumption. One bottle of 1% sugar water and one bottle of pure water were provided to each rat simultaneously. One hour later, the two bottles were weighed, and the total liquid consumption, sugar water consumption, pure water consumption, and the sugar water preference=sugar water consumption/total liquid consumption×100% were calculated, respectively. The experiment was performed after continuous administration of curcumin for 14 days."}, "[3]": {"test_system": "chronically stressed rats", "experiment": "Forced swimming test of rats (chronic stress model)", "details": "vs model control group", "description": "as §1, §2\nPlease see FIG. 7. 24 hours before the formal test, rats were placed into a round glass container (height: 40 cm, diameter: 18 cm) filled with water (depth: 23 cm) with a temperature of 24±1° C., and forced to conduct swim training for 15 min. […] The accumulative immobile time within the last 4 min was observed and recorded for each rat. The immobile time is intended to mean the period within which the rat stops to struggle, floats in the water and keeps immobile, or only makes a few slight movements that are necessary to keep its head floating on the surface of water."}, "serum corticosterone": {"test_system": "serum corticosterone", "experiment": "Determination of the content of serum corticosterone (chronic stress model)", "details": "stressed rats, day after 21-day stress", "description": "as §1, §2\nIn this experiment, the content of serum corticosterone was measured by a competitive method, with its mechanism shown as follow: antigens in samples and enzyme-labeled antigens compete to bind antibodies in a solid phase. The more antigens exist in samples, the less enzyme-labeled antigens bind to the solid phase, thereby resulting in a fainter coloration.\nOn the next day after the end of the 21-day stress period, rats were sacrificed by decollation, and 5˜10 ml whole blood was collected. A portion of the collected whole blood was kept at room temperature for 20 min, followed by centrifugation at 1000 rpm for 10 min. Serum was then separated and stored at −80° C. The serum corticosterone detection kit was used for such detection."}, "male ICR mice": {"test_system": "male ICR mice", "experiment": "Tail suspension test in mice", "details": "18.4 mg/kg single administration, vs control group", "experimental": "The tail suspension test was carried out for each of these groups on Days 3, 7 and 14 after administration, except that such experiment was not performed for the curcumin group on Day 14. Tails of the mice were taped on a special iron stand at 1 cm from the tips, whilst keeping the mice staying at a height of 50 cm from ground. Performance of the mice was observed within 6 min, and the accumulative immobile time within the last 4 min was recoded for each mouse."}, "HCT116 cells": {"test_system": "HCT116 cells", "experiment": "Antitumor experiment of tumor HCT116-bearing mice", "details": "7-day dosage by single administration, 7 days", "description": "During the experiment, the mice were inoculated with HCT116 cells (×10^7) in armpits. […] Seven days later, the mice were sacrificed by decollation. The tumors were removed, and the mice and the tumors were weighed separately."}, "[4]": {"details": "first line of group (Day 3 presumed)"}, "[5]": {"details": "second line of group (Day 7 presumed)"}, "[6]": {"details": "4.6 mg/kg, the values are: sugar water preference"}},
  "data": [
    {"substance": "curcumin decanoate [long acting curcumin]", "values": [
      {"measurement": "Hippocampus 5-HIAA", "setting": "[1]; [4]", "result": "183.4 ± 14.2", "unit": "ng/g"},
      {"measurement": "Hippocampus 5-HIAA/5-HT", "setting": "[1]; [4]", "result": "0.25 ± 0.02"},
      {"measurement": "Hippocampus 5-HT", "setting": "[1]; [4]", "result": "713.1 ± 19.2", "unit": "ng/g"},
      {"measurement": "Hippocampus DOPAC", "setting": "[1]; [4]", "result": "13.1 ± 2.0", "unit": "ng/g"},
      {"measurement": "Hippocampus Dopamine", "setting": "[1]; [4]", "result": "20.3 ± 5.9", "unit": "ng/g"},
      {"measurement": "Hippocampus Noradrenaline", "setting": "[1]; [4]", "result": "369.9 ± 12.3", "unit": "ng/g"},
      {"measurement": "Hippocampus 5-HIAA", "setting": "[1]; [5]", "result": "186.3 ± 8.4", "unit": "ng/g"},
      {"measurement": "Hippocampus 5-HIAA/5-HT", "setting": "[1]; [5]", "result": "0.25 ± 0.03"},
      {"measurement": "Hippocampus 5-HT", "setting": "[1]; [5]", "result": "725.0 ± 30.4", "unit": "ng/g"},
      {"measurement": "Hippocampus DOPAC", "setting": "[1]; [5]", "result": "14.6 ± 2.1", "unit": "ng/g"},
      {"measurement": "Hippocampus Dopamine", "setting": "[1]; [5]", "result": "21.2 ± 5.6", "unit": "ng/g"},
      {"measurement": "Hippocampus Noradrenaline", "setting": "[1]; [5]", "result": "372.2 ± 21.6", "unit": "ng/g"},
      {"measurement": "Sugar water volume after stress", "setting": "[2]; [6]", "result": "54.1 ± 4.7", "unit": "%"},
      {"measurement": "Sugar water volume before stress", "setting": "[2]; [6]", "result": "60.2 ± 9.2", "unit": "%"},
      {"measurement": "Sugar water volume after stress", "setting": "[2]; 9.2 mg/kg", "result": "72.8 ± 3.1", "unit": "%"},
      {"measurement": "Sugar water volume before stress", "setting": "[2]; 9.2 mg/kg, the values are: sugar water preference", "result": "60.4 ± 9.2", "unit": "%"},
      {"measurement": "Sugar water volume after stress", "setting": "[2]; 18.4 mg/kg", "result": "71.6 ± 2.3", "unit": "%"},
      {"measurement": "Sugar water volume before stress", "setting": "[2]; 18.4 mg/kg, the values are: sugar water preference", "result": "66.8 ± 8.6", "unit": "%"},
      {"measurement": "reduced the accumulative immobile time of the forced swimming test", "setting": "[3]; 4.6 mg/kg once every 7 days", "result": 37.6, "unit": "%"},
      {"measurement": "reduced the accumulative immobile time of the forced swimming test", "setting": "[3]; 9.2 mg/kg once every 7 days", "result": 49.4, "unit": "%"},
      {"measurement": "reduced the accumulative immobile time of the forced swimming test", "setting": "[3]; 18.4 mg/kg once every 7 days", "result": 58.9, "unit": "%"},
      {"measurement": "serum corticosterone", "setting": "serum corticosterone; 4.6 mg/kg once every 7 days", "result": "239.5 ± 33.7", "unit": "nmol/L"},
      {"measurement": "serum corticosterone", "setting": "serum corticosterone; 9.2 mg/kg once every 7 days", "result": "222.9 ± 30.6", "unit": "nmol/L"},
      {"measurement": "serum corticosterone", "setting": "serum corticosterone; 18.4 mg/kg once every 7 days", "result": "199.6 ± 28.0", "unit": "nmol/L"},
      {"measurement": "reduced the accumulative immobile time (tail suspension)", "setting": "male ICR mice; 3 days after administration", "result": 50.7, "unit": "%"},
      {"measurement": "reduced the accumulative immobile time (tail suspension)", "setting": "male ICR mice; 7 days after administration", "result": 59.5, "unit": "%"},
      {"measurement": "reduced the accumulative immobile time (tail suspension)", "setting": "male ICR mice; 14 days after administration", "result": 31.8, "unit": "%"},
      {"measurement": "inhibitory rate of tumors", "setting": "HCT116 cells; high dosage group", "result": 49.3, "unit": "%"},
      {"measurement": "inhibitory rate of tumors", "setting": "HCT116 cells; low dosage group", "result": 29.6, "unit": "%"},
      {"measurement": "inhibitory rate of tumors", "setting": "HCT116 cells; medium dosage group", "result": 58.4, "unit": "%"}
    ]}
  ]
}
